From ChEMBL document CHEMBL1201862, “PubChem BioAssay data set” (2004)
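Briefly, cells in 96-well plates were exposed to five compound concentrations for 48 h, and endpoints were estimated by linear interpolation. GI50 marks 50% less growth.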 The source made the active and inactive calls. No stated cut-off is given here; in the data, active = GI50 up to about 1.1 µM and inactive = higher.

Experiments:
Assay in all cases: inhibition of tumour cell growth, NCI panel, 48 h
DLD-1 = tested on: DLD-1
DMS-114 = tested on: DMS-114
KM-20L2 = tested on: KM-20L2
RXF 631 = tested on: RXF 631
XF498 = tested on: XF498
DMS-273 = tested on: DMS-273
HOP-18 = tested on: HOP-18
M19-MEL = tested on: M19-MEL
T47D = tested on: T47D

Measured: GI50

CCOC(=O)NC(=O)c1cn(CCN2CCN(C(=O)CCCCCCCCCCNc3ncnc4c3ncn4C3OC(CO)C(O)C3O)CC2)c(=O)[nH]c1=O (centres undefined)
inactive: DLD-1 > 100 µM | DMS-114 > 100 µM | KM-20L2 > 100 µM | RXF 631 > 100 µM | XF498 > 100 µM

CC(=O)NNc1nc(C)c(C(/C=C/c2ccc(Cl)cc2)=N/NC(=S)NN)s1
inactive: DLD-1 > 100 µM | DMS-114 > 100 µM | DMS-273 > 100 µM | HOP-18 > 100 µM | KM-20L2 > 100 µM | M19-MEL > 100 µM | RXF 631 > 100 µM | XF498 > 100 µM

CCOC(=O)C(/C(=N/NC(=O)OC)C(=O)Nc1ccc(C(C)=O)cc1)c1cnc2ccccc2n1 (centres undefined)
inactive: DLD-1 > 100 µM | DMS-114 > 100 µM | HOP-18 > 100 µM | KM-20L2 > 100 µM | M19-MEL > 100 µM | RXF 631 > 100 µM | XF498 > 100 µM

BrC12c3ccccc3Sc3ccccc3C1(Br)c1ccccc12 (centres undefined)
inactive: DLD-1 33 µM | DMS-114 19.5 µM | DMS-273 36 µM | HOP-18 51.5 µM | KM-20L2 20.6 µM | M19-MEL 35.2 µM | RXF 631 25.9 µM

O=c1c2cccc3cccc(c4n1CCCN=4)c32
inactive: DLD-1 > 100 µM | DMS-114 > 100 µM | DMS-273 > 100 µM | HOP-18 > 100 µM | KM-20L2 > 100 µM | M19-MEL > 100 µM | RXF 631 > 100 µM | XF498 > 100 µM

O=C(CCc1n[nH]c(=S)o1)Nc1ccccc1C(F)(F)F
inactive: DLD-1 > 100 µM | DMS-114 > 100 µM | DMS-273 > 100 µM | HOP-18 > 100 µM | KM-20L2 > 100 µM | M19-MEL > 100 µM | RXF 631 > 100 µM

S=c1[nH]c2ccc(Br)cc2c(=S)n1-c1ccccc1
inactive: DLD-1 28.7 µM | DMS-114 16.9 µM | DMS-273 17.1 µM | HOP-18 16.5 µM | KM-20L2 35.2 µM | M19-MEL 17.6 µM | RXF 631 26 µM | XF498 19.1 µM

CC(=O)C1=CSC2[C@H](NC(=O)Cc3ccccc3)C(=O)N2C1C(=O)OC(c1ccccc1)c1ccccc1 (some centres undefined)
inactive: DLD-1 > 100 µM | DMS-114 84.3 µM | DMS-273 67.9 µM | M19-MEL 96.4 µM | RXF 631 > 100 µM | XF498 > 100 µM

COc1ccc(/C=N\O[Si](C)(C)C(C)(C)C)cc1O[Si](C)(C)C(C)(C)C
inactive: DLD-1 17.9 µM | DMS-114 18.5 µM | DMS-273 19.3 µM | HOP-18 15.3 µM | KM-20L2 28.8 µM | M19-MEL 18.2 µM | RXF 631 21.1 µM | XF498 18.4 µM

Cn1c2c(c3ccccc31)CCN(CCCN1CCN(c3cccc(Cl)c3)CC1)C2=O
inactive: DLD-1 23 µM | DMS-114 14.2 µM | DMS-273 24.1 µM | HOP-18 22.9 µM | KM-20L2 2.87 µM | M19-MEL 20.2 µM | RXF 631 24.7 µM | XF498 10.4 µM

C=C(C)[C@@H]1CC=C(CO)CC1 [PERILLYL ALCOHOL]
inactive: DLD-1 220 µM | DMS-114 124 µM | KM-20L2 265 µM | M19-MEL 182 µM | RXF 631 565 µM | T47D > 10 µM | XF498 123 µM
